Data set [1] can be described thus: Specific surface area by BET-nitrogen adsorption analysis. It is filed as physicochemical. On the procedure: The specific surface area (SSA) is assessed with a Quantachrome NOVA touch 2LX. The N2 is used as measuring gas and BET method is used to evaluate SSA. The following setup has been used for the measurement: • Adsorbate: Nitrogen • Sample cell: 9 mm large bulb cell, long; Measurement is performed with the corresponding filler rod • Sample masses*: approximately ¾ of cell bulb • Degassing conditions: 960 min at 30° C. under vacuum (ramping 10° C./min) • Measured points of isotherm: 11 equidistant points in the range 0.05-0.30 p/p0** • Points analyzed using BET: 7equidistant points from whole range 0.05-0.20 p/p0 • Use data reduction adsorbate model: Yes (N2) • Bath thermal delay: at least 600 s • P0 Option: continuous (measured each 30 minutes) • Void volume mode: Helium measure • Equilibration time: 160 s • Equilibration timeout: 2400 s • Tolerance: 0.05 • * Used amount of sample depends on its SSA and other physical parameters. The real surface area of sample in measuring cell should be between 1 m^2/g and 20 m^2/g. • ** Points above or below this range can be measured.

The nature of data set [2]: Particle size distribution by LASER diffraction (Malvern Mastersizer 2000). It is filed as physicochemical. As to the method:
The particle size distribution (PSD) is determined with LASER diffraction analyzer Malvern Mastersizer 2000 which operates in size ranges from 0.02 μm to 2,000 μm. The wet dispersion is prepared from dry powder sample and added to the dispersion unit. Gained raw data are computed by software to PSD with the use of Mie theory. This method is based on Ph. Eur. Method 2.9.31 and USP <429>.

The conditions of data set [3]: cited from earlier work.

Here are results for one compound from US11529353B2, “Pharmaceutical composition comprising Palbociclib” (Synthon B.V., priority 2017, dated 2022).

In data set [1], `CC(=O)c1c(C)c2cnc(Nc3ccc(N4CCNCC4)cn3)nc2n(C2CCCC2)c1=O` [Palbociclib] gave a surface area of 6.9 m^2/g. This compound registered a D90 in data set [2] of 11.5 μm. In addition, the solubility result in data set [3] (above pH 4) is given as “reduces significantly”. In addition, the solubility in water entry in data set [3] (at or below pH 4) is given as “high-solubility compound”.
